IC50 data for five compounds are collected here from patent US20250340570A1, “COMPOSITIONS USEFUL FOR MODULATING SPLICING” (Skyhawk Therapeutics, Inc., priority 2022, published 2025).

Experiment [1] deals with total ATXN3 protein. The experiment can be described thus: ATXN3 total protein assay (Mesoscale Discovery). It is filed as cell-based. Particulars: Human neuroblastoma SK-N-MC cells, 48 hours incubation, MSD assay. Summed up: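 SK-N-MC neuroblastoma cells treated 48 hours with compound, 30 µM to 0.6 nM. Lysates assayed by MSD sandwich immunoassay with mouse capture and rabbit detection anti-ATXN3 antibodies; quantified against recombinant ATXN3 standards.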

For experiment [2], the system named is ATXN3 transcripts containing exon 4. Description: ATXN3 quantitative splicing assay (qPCR, E4E5 transcripts containing exon 4). It is filed as cell-based. As to conditions: Human neuroblastoma SK-N-MC cells, 24 h treatment, qPCR primers/probe E4E5. The essentials:
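SK-N-MC neuroblastoma cells treated 24 h with compounds from 30 μM to 0.6 nM (0.3% DMSO), then lysed for cDNA synthesis. ATXN3 transcripts containing exon 4 quantified by TaqMan qPCR with E4E5 primers/probe; E8E9 set measured total ATXN3.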
On the technique in general: Real-time PCR tracks product formation cycle by cycle.

In the case of `C[C@H](N)C(F)(F)c1sc2c(NCc3ccco3)snc2c1Cl` [Compound 110, 7-[(S)-2-amino-1,1-difluoropropyl]-8-chloro-4-(furfurylamino)-3,6-dithia-2-azabicyclo[3.3.0]octa-1,4,7-triene], the IC50 in experiment [1] and in experiment [2] was 0.501 to 5 µM in each case.
As for `N[C@H](Cc1sc2c(NCc3ccco3)snc2c1Br)C(F)F` [Compound 111, 7-[(R)-2-amino-3,3-difluoropropyl]-8-bromo-4-(furfurylamino)-3,6-dithia-2-azabicyclo[3.3.0]octa-1,4,7-triene], the IC50 in experiment [1] and in experiment [2] was 0.501 to 5 µM in each case.
On to `Brc1csc2c(NCc3cccs3)snc12` [Compound 113, (thenyl)(8-bromo-3,6-dithia-2-azabicyclo[3.3.0]octa-1,4,7-trien-4-yl)amine], for which the IC50 in experiment [1] and in experiment [2] was 10 to 40 µM each time.
With `COC(c1sc2c(NCc3cccs3)snc2c1Br)[C@H](C)N` (stereo partly drawn) [Compound 114, 5-[(2S)-2-amino-1-methoxypropyl]-6-bromo-N-(thiophen-2-ylmethyl)thieno[3,2-c][1,2]thiazol-3-amine], the IC50 in experiment [1] and in experiment [2] was 10 to 40 µM each time.
With `C[C@H](N)Cc1sc2c(NCc3cccs3)snc2c1-c1ccccc1` [Compound 128, 7-[(S)-2-aminopropyl]-8-phenyl-4-thenylamino-3,6-dithia-2-azabicyclo[3.3.0]octa-1,4,7-triene], the IC50 in experiment [1] and in experiment [2] was 10 to 40 µM each time.

A word on the IC50: it is the concentration at which inhibition is half-maximal. A higher IC50 goes with lower potency.
